Experimental data: patent publication US12662707B2, “MYC amplification drives resistance to pan-RAS inhibitors in pancreatic cancer” (The Trustees of Columbia University in the City of New York, priority 2024, dated 2026)

How the values were obtained:
[1] = system: 796 human tumor cell lines; assay: PRISM multiplex cell line screening; format: cell-based; settings: 5 days; relative to the other cell lines of the screen
Protocol: The PRISM cell set consisted of 796 cell lines representing more than 45 lineages, which largely overlapped with the Cancer Cell Line Encyclopedia (CCLE) (portals.broadinstitute.org/ccle). Cell lines were grown in RPMI without phenol red, supplemented with 10% or 20% FBS for adherent and suspended lines, respectively. Parental cell lines were stably infected with a unique 24-nucleotide DNA barcode via lentiviral transduction and blasticidin selection. After selection, barcoded cell lines were expanded and subjected to quality control (mycoplasma contamination test, a SNP test for confirming cell line identity, and barcode ID confirmation). Approved cell lines were then pooled (20-25 cell lines per pool) based on doubling time similarity and frozen in assay-ready vials.
RMC-7977 was added to 384-well plates at 8-point concentration with 3-fold dilutions in triplicate. These assay-ready plates were then seeded with the thawed cell line pools. […]
Each cell line's unique barcode is located in the 3′UTR of the blasticidin resistance gene and therefore is expressed as mRNA. […] Finally, Luminex beads that recognize the specific barcode sequences in the cell set were hybridized to the PCR products and detected using a Luminex scanner which reports signal as a median fluorescent intensity (MFI). […]

[2] = system: pERK in KPF/FC tumors; assay: PK/PD in KPF/FC tumors (pERK IHC); format: in vivo; settings: Mus musculus, read-out: EC50, pERK inhibition vs RMC-7977 concentration in tumors
Protocol: Tumor formation in KPF/FC (KrasLSL.G12D/+; p53flox/flox; Pdx1-Cre) mice was monitored by bi-weekly palpations until the detection of a mass, which was then confirmed by ultrasound. Tumor-bearing mice were randomized and assigned into groups (n=3/dose/timepoint). Single dose of RMC-7977 was administered orally at 10 mg/kg, 25 mg/kg and 50 mg/kg. The same vehicle formulation was used for the control group. Whole blood and tissue (tumors and colons) were harvested at indicated time points preserved as previously described (See Xenograft studies section).
Whole blood, tumor, colon and skin tissue concentrations of RMC-7977 were determined using liquid chromatography-tandem mass spectrometry (LC-MS/MS) methods. Tissue samples were homogenized with a 5× or 10× volume of homogenization buffer (methanol/15 mM PBS (1:2; v:v) or 15 mM PBS with 10% methanol). […] After thorough mixing and centrifugation, the supernatant was directly analyzed on a Sciex 6500+ triple quadrupole mass spectrometer equipped with an ACQUITY or Shimadzu UPLC system. […] RMC-7977 and IS (verapamil or terfenadine) were detected by positive electrospray ionization using multiple reaction monitoring (RMC-7977: m/z 865.4/706.4 or m/z 865.3/833.5; verapamil: m/z 455.2/164.9; terfenadine: m/z 472.3/436.4). The lower limit of quantification was 0.5 ng/mL or 2.0 ng/mL for blood, tumor, and other tissue. […]

[3] = system: wild type RAS; settings: reference 14; cited from earlier work

## CCn1c(-c2cc(N3CCN(C4CC4)CC3)cnc2[C@H](C)OC)c2c3cc(ccc31)-c1csc(n1)C[C@H](NC(=O)[C@H]1[C@@H]3COC[C@@H]31)C(=O)N1CCC[C@H](N1)C(=O)OCC(C)(C)C2 [RMC-7977]
[1]
  sensitivity of human PDAC cell lines in PRISM screen (AUC): among the most sensitive
[2]
  EC50: 321 nM
[3]
  affinity for wild type RAS compared to mutant variants: somewhat reduced affinity
